Results reported in PubChem BioAssay (NCI).
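Tested at 5 concentrations; 48 h exposure; 96-well plates; endpoints linearly interpolated, else capped at highest concentration. Definition used: TGI = concentration required for complete inhibition of growth.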

Legend:
Test in all cases: NCI tumour cell line growth inhibition, 48 h
[1] = tested on: NCI-H226 lung
[2] = tested on: HT29 colon
[3] = tested on: U251 CNS
[4] = tested on: SK-MEL-28 melanoma
[5] = tested on: LOX IMVI melanoma
[6] = tested on: SK-OV-3 ovarian
[7] = tested on: RXF 393 renal
[8] = tested on: NCI-H522 lung
[9] = tested on: SNB-78 CNS
[10] = tested on: HOP-92 NSCLC
[11] = tested on: SF-268 CNS
[12] = tested on: HL-60(TB) leukemia
[13] = tested on: MCF7 breast
[14] = tested on: UACC-62 melanoma
[15] = tested on: SW-620 colon
[16] = tested on: KM20L2 colon
[17] = tested on: HOP-18 NSCLC
[18] = tested on: OVCAR-4 ovarian
[19] = tested on: HCT-116 colon
[20] = tested on: P388 leukemia
[21] = tested on: SNB-75 CNS
[22] = tested on: COLO 205 colon
[23] = tested on: XF 498 CNS
[24] = tested on: SN12K1 renal
[25] = tested on: CCRF-CEM leukemia
[26] = tested on: SF-539 CNS
[27] = tested on: OVCAR-3 ovarian
[28] = tested on: NCI/ADR-RES ovarian
[29] = tested on: MOLT-4 leukemia
[30] = tested on: HCT-15 colon
[31] = tested on: SF-295 CNS
[32] = tested on: KM12 colon
[33] = tested on: A549 NSCLC
[34] = tested on: NCI-H460 lung
[35] = tested on: UACC-257 melanoma
[36] = tested on: DMS 114 small cell lung
[37] = tested on: DMS 273 small cell lung
[38] = tested on: NCI-H23 lung
[39] = tested on: M19-MEL melanoma
[40] = tested on: CAKI-1 renal
[41] = tested on: IGROV1 ovarian
[42] = tested on: DLD-1 colon
[43] = tested on: K-562 leukemia
[44] = tested on: A498 renal
[45] = tested on: SK-MEL-5 melanoma
[46] = tested on: OVCAR-5 ovarian
[47] = tested on: P388/ADR leukemia
[48] = tested on: RPMI-8226 leukemia
[49] = tested on: SN12C renal
[50] = tested on: OVCAR-8 ovarian
[51] = tested on: SNB-19 CNS
[52] = tested on: HCC-2998 colon
[53] = tested on: EKVX NSCLC
[54] = tested on: UO-31 renal
[55] = tested on: HOP-62 NSCLC
[56] = tested on: SK-MEL-2 melanoma
[57] = tested on: MALME-3M melanoma

COc1ccc(-c2nc3ccc([N+](=O)[O-])cc3c(=O)[nH]2)cc1
TGI [1]: 59.1 µM | TGI [2]: > 100 µM | TGI [3]: > 64.3 µM | TGI [4]: > 100 µM | TGI [5]: > 100 µM | TGI [6]: 29.3 µM | TGI [7]: > 75.6 µM | TGI [8]: 90.5 µM | TGI [9]: 71.8 µM | TGI [10]: 45.8 µM | TGI [11]: 67.3 µM | TGI [12]: > 100 µM | TGI [13]: > 100 µM | TGI [14]: > 100 µM | TGI [15]: > 100 µM | TGI [16]: > 100 µM | TGI [17]: > 100 µM | TGI [18]: 33.4 µM | TGI [19]: > 79.4 µM | TGI [20]: > 100 µM | TGI [21]: 31 µM | TGI [22]: > 100 µM | TGI [23]: 46.3 µM | TGI [24]: > 86.5 µM | TGI [25]: > 100 µM | TGI [26]: 29.7 µM | TGI [27]: 64.3 µM | TGI [28]: > 100 µM | TGI [29]: > 100 µM | TGI [30]: > 100 µM | TGI [31]: > 63.3 µM | TGI [32]: > 100 µM | TGI [33]: > 100 µM | TGI [34]: > 100 µM | TGI [35]: > 100 µM | TGI [36]: > 100 µM | TGI [37]: > 100 µM | TGI [38]: > 86.8 µM | TGI [39]: > 100 µM | TGI [40]: > 86.7 µM | TGI [41]: 71.5 µM | TGI [42]: > 100 µM | TGI [43]: > 100 µM | TGI [44]: > 100 µM | TGI [45]: > 100 µM | TGI [46]: > 100 µM | TGI [47]: > 100 µM | TGI [48]: > 100 µM | TGI [49]: > 100 µM | TGI [50]: > 72.2 µM | TGI [51]: 55.3 µM | TGI [52]: > 100 µM | TGI [53]: > 100 µM | TGI [54]: > 100 µM | TGI [55]: > 67.7 µM | TGI [56]: > 100 µM

C#CC[N+](CCO)(CCO)CCCCCCCCCCCCCCCCCC
TGI [1]: 29.2 µM | TGI [2]: 20.1 µM | TGI [3]: 27.5 µM | TGI [4]: 30.6 µM | TGI [5]: > 48.3 µM | TGI [6]: 36.1 µM | TGI [7]: 6.64 µM | TGI [8]: 21.7 µM | TGI [9]: 28.4 µM | TGI [10]: 5.2 µM | TGI [11]: 26.2 µM | TGI [12]: 3.43 µM | TGI [13]: 36.5 µM | TGI [14]: 25.4 µM | TGI [15]: 34.9 µM | TGI [16]: 25.8 µM | TGI [17]: 22.1 µM | TGI [18]: 25 µM | TGI [19]: 27.4 µM | TGI [20]: 2.5 µM | TGI [21]: 15.9 µM | TGI [22]: 27.1 µM | TGI [57]: 32.3 µM | TGI [23]: 17.3 µM | TGI [24]: 30 µM | TGI [26]: 30.2 µM | TGI [27]: 35.9 µM | TGI [28]: 39.5 µM | TGI [29]: 9.7 µM | TGI [30]: 50.8 µM | TGI [31]: 24.1 µM | TGI [32]: 8.97 µM | TGI [33]: 36.5 µM | TGI [34]: 27.9 µM | TGI [35]: 31 µM | TGI [36]: 33 µM | TGI [37]: 22.6 µM | TGI [38]: 30.1 µM | TGI [39]: 15 µM | TGI [40]: 15.9 µM | TGI [41]: 5.13 µM | TGI [42]: 24.5 µM | TGI [43]: > 41.2 µM | TGI [44]: 37.8 µM | TGI [45]: 32.1 µM | TGI [46]: 32.5 µM | TGI [47]: > 43.7 µM | TGI [48]: > 29 µM | TGI [49]: 39.3 µM | TGI [50]: 43.1 µM | TGI [51]: 20.7 µM | TGI [52]: 23.7 µM | TGI [53]: 51.1 µM | TGI [54]: 34.9 µM | TGI [55]: 25.5 µM | TGI [56]: 31.8 µM
